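A five-concentration, 48-hour dose response in 96-well plates underlies each endpoint, interpolated linearly between surrounding concentrations. The concentration for 50% growth inhibition is given as GI50. The concentration for full growth arrest is given as TGI.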
Assays:
Assay in all cases: growth of human tumour cells (NCI), 48 h
CCRF-CEM leukemia = tested on: CCRF-CEM leukemia
EKVX NSCLC = tested on: EKVX NSCLC
HOP-92 NSCLC = tested on: HOP-92 NSCLC
HT29 colon = tested on: HT29 colon
IGROV1 ovarian = tested on: IGROV1 ovarian
NCI-H522 lung = tested on: NCI-H522 lung
SF-268 CNS = tested on: SF-268 CNS
UACC-257 melanoma = tested on: UACC-257 melanoma
CAKI-1 renal = tested on: CAKI-1 renal
MDA-MB-435 = tested on: MDA-MB-435

C[C@]12CCC3[C@@H](C[C@H]4OC(=O)[C@@]35CCC(=O)C=C45)C1CCC2=O (some centres undefined)
TGI (CCRF-CEM leukemia): > 100 µM
TGI (EKVX NSCLC): > 100 µM
TGI (HOP-92 NSCLC): > 100 µM
TGI (HT29 colon): > 100 µM
TGI (IGROV1 ovarian): > 100 µM
TGI (NCI-H522 lung): > 100 µM
TGI (SF-268 CNS): > 100 µM
TGI (UACC-257 melanoma): > 100 µM

CN(C)c1ccc(/C=C/C(=O)c2ccccc2)cc1Br
TGI (CAKI-1 renal): 32.9 µM
TGI (CCRF-CEM leukemia): 62.7 µM
TGI (EKVX NSCLC): > 100 µM
TGI (HT29 colon): 51 µM
TGI (IGROV1 ovarian): 48.5 µM
TGI (NCI-H522 lung): 31.4 µM
TGI (SF-268 CNS): 49.3 µM
TGI (UACC-257 melanoma): 52.6 µM

COC(=O)CSc1ccccc1
TGI (CAKI-1 renal): > 100 µM
TGI (CCRF-CEM leukemia): > 100 µM
TGI (EKVX NSCLC): > 100 µM
TGI (HOP-92 NSCLC): 99.1 µM
TGI (HT29 colon): > 100 µM
TGI (IGROV1 ovarian): > 100 µM
TGI (SF-268 CNS): > 100 µM
TGI (UACC-257 melanoma): > 100 µM

COc1ccc(CN2C(=O)C(Cc3cc(OC)c(OC)c(C)c3OC)N(C(=O)OC(C)C)C(=O)/C2=C/c2cc(OC)c(OC)c(C)c2OC)cc1 (centres undefined)
TGI (CAKI-1 renal): > 100 µM
TGI (CCRF-CEM leukemia): > 100 µM
TGI (EKVX NSCLC): > 100 µM
TGI (HOP-92 NSCLC): > 100 µM
TGI (HT29 colon): > 100 µM
TGI (IGROV1 ovarian): > 100 µM
TGI (NCI-H522 lung): > 100 µM
TGI (SF-268 CNS): > 100 µM
TGI (UACC-257 melanoma): > 100 µM

O=c1cc2n(c(=O)[nH]1)C1OC(C(O)C1O)[C@H]2CCO (some centres undefined)
TGI (CAKI-1 renal): > 100 µM
TGI (CCRF-CEM leukemia): > 100 µM
TGI (EKVX NSCLC): > 100 µM
TGI (HOP-92 NSCLC): > 100 µM
TGI (HT29 colon): > 100 µM
TGI (IGROV1 ovarian): > 100 µM
TGI (NCI-H522 lung): > 100 µM
TGI (SF-268 CNS): > 100 µM
TGI (UACC-257 melanoma): > 100 µM

O=C1OC(c2ccccc2)C2CC3CC4(CCC3CN12)OCCO4 (centres undefined)
TGI (CAKI-1 renal): > 100 µM
TGI (CCRF-CEM leukemia): > 100 µM
TGI (EKVX NSCLC): > 100 µM
TGI (HOP-92 NSCLC): > 100 µM
TGI (HT29 colon): > 100 µM
TGI (IGROV1 ovarian): > 100 µM
TGI (NCI-H522 lung): 1.57 µM
TGI (SF-268 CNS): > 100 µM
TGI (UACC-257 melanoma): > 100 µM

COc1ccc(C(=O)C(c2ccc(OC)cc2)C2C(=O)Oc3ccccc32)cc1 (centres undefined)
GI50 (CCRF-CEM leukemia): > 100 µM
TGI (CCRF-CEM leukemia): > 100 µM
GI50 (EKVX NSCLC): > 100 µM
TGI (EKVX NSCLC): > 100 µM
GI50 (HOP-92 NSCLC): > 100 µM
TGI (HOP-92 NSCLC): > 100 µM
GI50 (HT29 colon): > 100 µM
TGI (HT29 colon): > 100 µM
GI50 (IGROV1 ovarian): > 100 µM
TGI (IGROV1 ovarian): > 100 µM
GI50 (NCI-H522 lung): > 100 µM
TGI (NCI-H522 lung): > 100 µM
GI50 (SF-268 CNS): > 100 µM
TGI (SF-268 CNS): > 100 µM
GI50 (UACC-257 melanoma): > 100 µM
TGI (UACC-257 melanoma): > 100 µM

Cc1cc(C)nc(NS(=O)(=O)c2ccc(NC(=O)c3cccc4c(Nc5ccc(S(=O)(=O)Nc6nc(C)cc(C)n6)cc5)c5ccccc5nc34)cc2)n1
TGI (CAKI-1 renal): 51.6 µM
TGI (CCRF-CEM leukemia): 69.6 µM
TGI (EKVX NSCLC): 55.1 µM
TGI (HOP-92 NSCLC): 45.1 µM
TGI (HT29 colon): 43.9 µM
TGI (IGROV1 ovarian): > 100 µM
TGI (NCI-H522 lung): 32.8 µM
TGI (SF-268 CNS): 93 µM
TGI (UACC-257 melanoma): 43.2 µM

COc1ccc(-c2cc(-c3ccc(O)cc3)nc3nc(=S)[nH]c(N)c23)cc1
GI50 (CAKI-1 renal): 27.1 µM
TGI (CAKI-1 renal): 88.7 µM
GI50 (EKVX NSCLC): 13.5 µM
TGI (EKVX NSCLC): 60.7 µM
GI50 (HOP-92 NSCLC): 5.15 µM
TGI (HOP-92 NSCLC): 36.4 µM
GI50 (HT29 colon): 30.1 µM
TGI (HT29 colon): > 100 µM
GI50 (IGROV1 ovarian): 18.6 µM
TGI (IGROV1 ovarian): 73.8 µM
GI50 (MDA-MB-435): 17.3 µM
TGI (MDA-MB-435): 41.4 µM
GI50 (NCI-H522 lung): 8.5 µM
TGI (NCI-H522 lung): 27.8 µM
GI50 (SF-268 CNS): 23.4 µM
TGI (SF-268 CNS): 79.2 µM
GI50 (UACC-257 melanoma): 17.2 µM
TGI (UACC-257 melanoma): 36.3 µM

O=C(c1ccccc1)c1ccc(Cl)c([N+](=O)[O-])c1
GI50 (CAKI-1 renal): 5.5 µM
TGI (CAKI-1 renal): 20.2 µM
GI50 (CCRF-CEM leukemia): 3.18 µM
TGI (CCRF-CEM leukemia): 13.5 µM
GI50 (HT29 colon): 3.43 µM
TGI (HT29 colon): 11.1 µM
GI50 (IGROV1 ovarian): 7.92 µM
TGI (IGROV1 ovarian): 23.9 µM
GI50 (MDA-MB-435): 4.53 µM
TGI (MDA-MB-435): 17.1 µM
GI50 (NCI-H522 lung): 1.41 µM
TGI (NCI-H522 lung): 6.18 µM
GI50 (SF-268 CNS): 4.48 µM
TGI (SF-268 CNS): 18 µM
GI50 (UACC-257 melanoma): 6.26 µM
TGI (UACC-257 melanoma): 21.6 µM

O=C(Nc1ccc(Cl)c(Cl)c1)C(=O)Nn1c(=S)[nH]c2ccccc2c1=O
TGI (CAKI-1 renal): > 100 µM
TGI (CCRF-CEM leukemia): > 100 µM
TGI (EKVX NSCLC): > 100 µM
TGI (HOP-92 NSCLC): > 100 µM
TGI (HT29 colon): > 100 µM
TGI (IGROV1 ovarian): > 100 µM
TGI (NCI-H522 lung): > 100 µM
TGI (SF-268 CNS): > 100 µM
TGI (UACC-257 melanoma): > 100 µM

CCOC(=O)NC(=O)c1cn(CCCCCOC(=O)NCCCCCCNC(=O)OCCCCCn2cc(C(=O)NC(=O)OCC)c(=O)[nH]c2=O)c(=O)[nH]c1=O
TGI (CAKI-1 renal): > 100 µM
TGI (CCRF-CEM leukemia): > 100 µM
TGI (EKVX NSCLC): > 100 µM
TGI (HT29 colon): > 100 µM
TGI (IGROV1 ovarian): > 100 µM
TGI (NCI-H522 lung): > 100 µM
TGI (SF-268 CNS): > 100 µM
TGI (UACC-257 melanoma): > 100 µM

CC1(C)Cc2cccc(OCC(O)CN3CCN(c4ccc(F)cc4)CC3)c2O1 (centres undefined)
GI50 (CAKI-1 renal): 15.8 µM
TGI (CAKI-1 renal): 37.7 µM
GI50 (EKVX NSCLC): 25 µM
TGI (EKVX NSCLC): > 50 µM
GI50 (HOP-92 NSCLC): 8.15 µM
TGI (HOP-92 NSCLC): 31.4 µM
GI50 (HT29 colon): 7.87 µM
TGI (HT29 colon): 17.2 µM
GI50 (IGROV1 ovarian): 20 µM
TGI (IGROV1 ovarian): > 50 µM
GI50 (MDA-MB-435): 10.5 µM
TGI (MDA-MB-435): 25.7 µM
GI50 (NCI-H522 lung): 47.8 µM
TGI (NCI-H522 lung): > 50 µM
GI50 (SF-268 CNS): 18 µM
TGI (SF-268 CNS): > 50 µM
GI50 (UACC-257 melanoma): 6.34 µM
TGI (UACC-257 melanoma): 16.9 µM

CCCn1cc(C2=C(c3cn(C)c4ccccc34)C(=O)NC2=O)c2ccccc21
GI50 (CAKI-1 renal): 0.937 µM
TGI (CAKI-1 renal): > 23.2 µM
GI50 (CCRF-CEM leukemia): 0.79 µM
TGI (CCRF-CEM leukemia): > 11.2 µM
GI50 (HT29 colon): 0.783 µM
TGI (HT29 colon): 6.16 µM
GI50 (IGROV1 ovarian): 4.03 µM
TGI (IGROV1 ovarian): > 17 µM
GI50 (MDA-MB-435): 0.0992 µM
TGI (MDA-MB-435): 0.691 µM
GI50 (NCI-H522 lung): 0.467 µM
TGI (NCI-H522 lung): 4.58 µM
GI50 (SF-268 CNS): 2.64 µM
TGI (SF-268 CNS): > 16.1 µM
GI50 (UACC-257 melanoma): 1.8 µM
TGI (UACC-257 melanoma): > 25 µM

O=C(CCc1nnc(-c2c(Cl)cccc2Cl)o1)c1nc2ccccc2[nH]1
GI50 (CAKI-1 renal): 3.49 µM
TGI (CAKI-1 renal): 41.1 µM
GI50 (CCRF-CEM leukemia): 4.86 µM
TGI (CCRF-CEM leukemia): 66 µM
GI50 (EKVX NSCLC): 5.48 µM
TGI (EKVX NSCLC): > 100 µM
GI50 (HOP-92 NSCLC): 1.77 µM
TGI (HOP-92 NSCLC): 15.8 µM
GI50 (HT29 colon): 3.77 µM
TGI (HT29 colon): 55.1 µM
GI50 (IGROV1 ovarian): 5.26 µM
TGI (IGROV1 ovarian): 39.1 µM
GI50 (MDA-MB-435): 2 µM
TGI (MDA-MB-435): 4.77 µM
GI50 (SF-268 CNS): 7.29 µM
TGI (SF-268 CNS): 46.6 µM
GI50 (UACC-257 melanoma): 13.7 µM
TGI (UACC-257 melanoma): 44.4 µM

CN(C)c1ccc(/C=C(\C#N)c2cc3ccccc3n2C)cc1
GI50 (CAKI-1 renal): 0.0856 µM
TGI (CAKI-1 renal): > 100 µM
GI50 (CCRF-CEM leukemia): 0.244 µM
TGI (CCRF-CEM leukemia): > 100 µM
GI50 (EKVX NSCLC): 0.636 µM
TGI (EKVX NSCLC): > 100 µM
GI50 (HOP-92 NSCLC): 0.556 µM
TGI (HOP-92 NSCLC): > 23 µM
GI50 (HT29 colon): 0.121 µM
TGI (HT29 colon): 5.64 µM
GI50 (IGROV1 ovarian): 0.143 µM
TGI (IGROV1 ovarian): > 100 µM
GI50 (NCI-H522 lung): 0.122 µM
TGI (NCI-H522 lung): 1.29 µM
GI50 (SF-268 CNS): 2.18 µM
TGI (SF-268 CNS): > 100 µM
GI50 (UACC-257 melanoma): 2.98 µM
TGI (UACC-257 melanoma): > 100 µM

O=c1c2cc(Br)ccc2[nH]c(=S)n1-c1ccc(Br)cc1
TGI (EKVX NSCLC): > 100 µM
TGI (HOP-92 NSCLC): 75.7 µM
TGI (HT29 colon): > 100 µM
TGI (IGROV1 ovarian): > 100 µM
TGI (NCI-H522 lung): > 100 µM
TGI (SF-268 CNS): > 100 µM
TGI (UACC-257 melanoma): > 100 µM

Source: PubChem BioAssay (NCI)
